“And” between values parts separate entries of the source, which are not always exact repeats. Equal values may be shown once.
Experiments:
[1] = molecular target: T1, β1-AR (Homo sapiens, UniProt P08588); assay: CRE-luciferase production in CHO-β1-CRE-luciferase cells; details: for % isop: response compared to 10 μM isoprenaline; for Log EC50: agonist action; for Log ratio of affinities: catecholamine vs secondary conformation; for Log KD Secondary Conformation, CGP12177 as agonist: rightward shift of CGP12177 response
[2] = molecular target: T1, β1-AR; assay: Summary of pharmacological outcome at the β1-AR (CHO-β1-luciferase or CHO-β1-SPAP cells); details: for Pharmacological Outcome: CCE/IBS conformation / Pharmacological Outcome: SCE conformation: β1-AR, summary; for Evidence of SCE activation: evidence A–D as outlined in the Introduction, CHO-β1-luciferase or CHO-β1-SPAP cells
[3] = molecular target: T1, β1-AR; assay: CRE-SPAP production in CHO-β1-CRE-SPAP cells; type: cell-based; design: expressed in transfected cells; host or cells: CHO-K1 clonal lines (CHO-β1-CRE-luc, CHO-β1-CRE-SPAP); details: for % Isoprenaline: response compared with 10 μM isoprenaline; for EC50 / Log EC50: agonist action; for EC50: read-out: Log EC50 (converted)
Method: (§1) Many agonist responses were best described by a one-site sigmoidal agonist concentration-response curve.
(§2) In experiments where 3 different fixed concentrations of the same antagonist were used, Schild plots were constructed using equation (6):(6) logDR-1=logB-logKD
(§3) These points were then fitted to a straight line. A slope of 1 then indicates competitive antagonism.[39]
(§4) Where clear partial agonism was present (eg, Fig. 3D), the partial agonist affinity was calculated by the method of Stephenson[40] using equation 7.
(§5) (7) KDpartialagonist=Y×P/1-YwhereY=A2-A1/A3 where [P] is the concentration of the partial agonist, [A1] is the concentration of the agonist at the point where the fixed partial agonist causes the same response, [A2] is the concentration of agonist causing a given response above that achieved by the partial agonist, and [A3] is the concentration of the agonist, in the presence of the partial agonist, causing the same stimulation as [A2].
where N is the percentage of site 1, [A] is the concentration of agonist, and EC1_50 and EC2_50 are the respective EC50 values for the 2 agonist sites.

[4] = molecular target: T2, human β2-AR (Homo sapiens, UniProt P07550); assay: CRE-SPAP production in CHO-β2-CRE-SPAP cells; type: cell-based; design: expressed in transfected cells; host or cells: CHO-K1 clonal line (CHO-β2-CRE-SPAP); details: for % Isoprenaline: response compared with 10 μM isoprenaline; for EC50 / Log EC50: agonist action; for Log ratio of affinities: cimaterol vs CGP12177 as agonist
Method: as §1, §2, §3, §4, §5

[5] = molecular target: T2, human β2-AR; assay: 3H-CGP12177 whole-cell binding in CHO-β2-CRE-SPAP cells; details: for β2-Selectivity: β2 over β1 affinity from whole-cell binding
[6] = molecular target: T1, β1-AR; assay: 3H-CGP12177 whole-cell binding in CHO-β1-CRE-SPAP cells
[7] = CHO-β1-CRE-luciferase cells, given as log EC50 (negative)
[8] = Log KD (CGP12177 as Agonist), rightward shift of CGP12177 response
[9] = Log KD (Cimaterol as Agonist), rightward shift of cimaterol response, Gaddum, or Stephenson (a)
[10] = Log EC50, agonist action, CHO-β1-CRE-luciferase cells, given as log EC50 (negative)
[11] = CHO-β1-CRE-luciferase cells, Gaddum, or Stephenson for partial agonists (a)
[12] = rightward shift of CGP12177 response
[13] = rightward shift of CGP12177 response, CHO-β1-CRE-SPAP cells
[14] = rightward shift of cimaterol response, CHO-β1-CRE-SPAP cells, Gaddum, or Stephenson (a)

T2 sequence (P07550 whole entry): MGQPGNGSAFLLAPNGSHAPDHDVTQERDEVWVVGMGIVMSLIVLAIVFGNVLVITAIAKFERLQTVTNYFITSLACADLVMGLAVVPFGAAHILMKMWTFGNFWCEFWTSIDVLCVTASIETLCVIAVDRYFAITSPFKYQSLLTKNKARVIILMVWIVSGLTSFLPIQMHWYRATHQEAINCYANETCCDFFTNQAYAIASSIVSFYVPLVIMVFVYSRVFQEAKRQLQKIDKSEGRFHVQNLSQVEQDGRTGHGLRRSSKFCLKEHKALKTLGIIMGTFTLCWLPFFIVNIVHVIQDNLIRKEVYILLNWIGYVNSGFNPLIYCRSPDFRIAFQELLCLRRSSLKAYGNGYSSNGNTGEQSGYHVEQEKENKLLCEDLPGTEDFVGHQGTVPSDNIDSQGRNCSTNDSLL
T1 sequence (P08588 whole entry): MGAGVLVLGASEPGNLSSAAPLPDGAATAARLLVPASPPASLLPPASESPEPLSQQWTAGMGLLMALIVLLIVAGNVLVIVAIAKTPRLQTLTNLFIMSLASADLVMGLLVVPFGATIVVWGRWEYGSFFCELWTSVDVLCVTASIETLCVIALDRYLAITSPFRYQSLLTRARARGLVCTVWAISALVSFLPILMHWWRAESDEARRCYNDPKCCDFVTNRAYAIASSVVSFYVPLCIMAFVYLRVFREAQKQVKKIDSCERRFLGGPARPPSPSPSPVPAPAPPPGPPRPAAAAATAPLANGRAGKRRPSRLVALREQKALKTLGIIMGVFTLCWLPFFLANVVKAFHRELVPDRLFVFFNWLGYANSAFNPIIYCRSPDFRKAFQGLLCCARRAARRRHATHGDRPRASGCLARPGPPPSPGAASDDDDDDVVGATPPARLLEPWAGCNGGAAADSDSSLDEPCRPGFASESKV

| Structure (SMILES) | % isop ([1]; CHO-β1-CRE-luciferase cells) | Pharmacological Outcome: CCE/IBS conformation [2] | Pharmacological Outcome: SCE conformation [2] | % Isoprenaline ([3]; CHO-β1-CRE-SPAP cells) | % Isoprenaline [4] [%] | EC50 [4] [nM] | Kd [5] [nM] | β2-Selectivity [5] [fold] | Kd [6] [nM] | EC50 ([3]; CHO-β1-CRE-SPAP cells) [nM] | Log EC50 [1, 7] | Evidence of SCE activation [2] | Kd [4, 9] [nM] | Log EC50 [4] | Log EC50 ([3]; CHO-β1-CRE-SPAP cells) | Log KD Secondary Conformation, CGP12177 as agonist [1, 11] | further results |
| --- | --- | --- | --- | --- | --- | --- | --- | --- | --- | --- | --- | --- | --- | --- | --- | --- | --- |
| C=CCc1ccccc1OCC(O)CNC(C)C (racemic) [Alprenolol, (RS)-1-(2-allylphenoxy)-3-(isopropylamino)propan-2-ol, reference compound] | 3.2 ± 0.8% | Agonist (biphasic) | Agonist (biphasic) | 56.7 ± 3.7% |  |  |  |  |  |  |  |  |  |  |  |  | % at EC501 ([3]; % of the response occurring via first component, CHO-β1-CRE-SPAP cells): 62.5 ± 2.7% |
| C=CCOc1ccccc1OCC(O)CNC(C)C (racemic) [Oxprenolol, (RS)-1-[2-(allyloxy)phenoxy]-3-(isopropylamino)propan-2-ol, reference compound] |  | Agonist (biphasic) | Agonist (biphasic) |  | 40.1 ± 2.3 |  |  |  |  |  |  |  |  |  |  |  |  |
| CC(C)NCC(O)COc1cccc2[nH]ccc12 (racemic) [Pindolol, (RS)-1-[(1H -indol-4-yl)oxy]-3-(isopropylamino)propan-2-ol, reference compound] | 11.7 ± 1.4% | Agonist (biphasic) | Agonist (biphasic) |  |  |  |  |  |  |  |  |  |  |  |  |  |  |
| CC(C)(Cc1c[nH]c2ccccc12)NCC(O)COc1ccccc1C#N (stereo not drawn) [Bucindolol, 2-[2-hydroxy-3-[[2-(1H -indol-3-yl)-1,1-dimethyl-ethyl]amino]propoxy]benzonitrile, reference compound] | 23.7 ± 1.7% | Agonist (biphasic) | Agonist (biphasic) | 84.5 ± 2.4% | 70.3 ± 2.0 | 0.2 | 0.0513 | 11.2 | 0.575 | 0.759 |  |  |  |  |  |  | % at EC501 ([1]; % of the response occurring via first component, CHO-β1-CRE-luciferase cells): 23.3 ± 2.4%; EC50 ([1]; EC501 (log EC50 of first component), biphasic concentration response, CHO-β1-CRE-luciferase cells): 0.537 nM; EC50 ([1]; EC502 (log EC50 of second component), biphasic concentration response, CHO-β1-CRE-luciferase cells): 57.5 nM |
| CC(C)(C)NC[C@H](O)COc1cccc2c1CCCC2=O [VL03, 5-[(2S)-3-(tert-butylamino)-2-hydroxypropoxy]-3,4-dihydro-2H -naphthalen-1-one] |  | High-affinity neutral antagonist | Low-affinity neutral antagonist |  |  |  |  |  | 5.13 |  | No response | None | 0.0468 | No response | No response |  | Schild slope ([4]; CGP12177 as agonist): 1.00 ± 0.03; Kd [4, 8]: 0.0759 nM; Schild slope ([4]; cimaterol as agonist): 0.99 ± 0.04; Kd ([3]; Log KD Catecholamine conformation Cimaterol as Agonist, rightward shift of cimaterol response, CHO-β1-CRE-SPAP cells, Gaddum, or Stephenson (a)): 1.78 nM; Kd ([3]; Log KD Secondary Conformation CGP12177 as Agonist, rightward shift of CGP12177 response, CHO-β1-CRE-SPAP cells): 562 nM; Schild slope ([3]; cimaterol as agonist, CHO-β1-CRE-SPAP cells): 0.96 ± 0.05 |
| CC(C)(C)NC[C@@H](O)COc1cccc2c1CCC(=O)N2 [VL04, 5-[(2R)-3-(tert-butylamino)-2-hydroxypropoxy]-3,4-dihydro-1H -quinolin-2-one] |  |  |  |  | 55.1 ± 2.7 |  |  |  |  |  |  |  |  |  |  |  |  |
| COc1ccccc1OC[C@@H](O)CNC(C)C [VL05, (2S)-1-(2-methoxyphenoxy)-3-(propan-2-ylamino)propan-2-ol] | 9.7 ± 0.8% | Agonist |  | 62.3 ± 3.8% | 63.2 ± 3.2 | 3.8 | 12.3 | 1.9 | 24 | 5.01 |  | None |  |  |  | No shift 10 μM | Kd [1]: 10 nM; EC50 [1, 10]: 64.6 nM; Log ratio of affinities ([1]; CHO-β1-CRE-luciferase cells): >3 |
| COc1ccc(OCC(O)CNCCc2c[nH]c3ccccc23)cc1 (stereo not drawn) [VL06, 1-[2-(1H -indol-3-yl)ethylamino]-3-(4-methoxyphenoxy)propan-2-ol] | 2.7 ± 0.8% | Agonist |  | 53.6 ± 3.1% | 15.2 ± 1.2 | 363 | 977 | 1.1 | 1120 | 339 |  | None | 457 |  |  | No shift 10 μM | Kd [1]: 347 nM; EC50 [1, 10]: 1410 nM; Log ratio of affinities ([1]; CHO-β1-CRE-luciferase cells): >1.46; Kd [4, 8]: 1170 nM; Log ratio of affinities [4]: 0.41 |
| Cc1cc(C)c(OC[C@@H](O)CNC(C)C)c(C)c1 [VL08, (2S)-1-(propan-2-ylamino)-3-(2,4,6-trimethylphenoxy)propan-2-ol] |  | No receptor interaction | No receptor interaction |  |  |  | 3240 |  |  |  | No response | None | 2090 | No response | No response | No shift 10 μM | Log KD (CGP12177 as Agonist) [4, 12]: No shift 10 μM; Log KD Secondary Conformation, CGP12177 as agonist [3, 13]: No shift 10 μM; Log KD Catecholamine conformation Cimaterol as Agonist [3, 14]: No shift 10 μM |
| O[C@H](CNCCc1c[nH]c2ccccc12)COc1ccc(F)cc1 [VL10, (2R)-1-(4-fluorophenoxy)-3-[2-(1H -indol-3-yl)ethylamino]propan-2-ol] | 14% and 13.8 ± 1.5% | Agonist |  | 67% and 66.9 ± 2.5% | 28.7 ± 2.0 | 39.8 | 89.1 | 2.1 | 186 | 18.6 |  | None | 37.2 |  |  |  | EC50 [1, 10]: 155 nM; Log ratio of affinities ([1]; CHO-β1-CRE-luciferase cells): 1.64; Kd [4, 8]: 138 nM; Log ratio of affinities [4]: 0.57; Kd [3]: 117 nM |
| OCCOc1ccc(CNCCc2c[nH]c3ccccc23)cc1 [VL11, 2-[4-[[2-(1H -indol-3-yl)ethylamino]methyl]phenoxy]ethanol] |  | No receptor interaction | No receptor interaction |  |  |  | 8910 |  |  |  | No response | None |  | No response | No response | No shift 10 μM | Log KD (CGP12177 as Agonist) [4, 12]: No shift 10 μM; Log KD (Cimaterol as Agonist) ([4]; rightward shift of cimaterol response, Gaddum, or Stephenson (a)): No shift 10 μM; Log KD Secondary Conformation, CGP12177 as agonist [3, 13]: No shift 10 μM; Log KD Catecholamine conformation Cimaterol as Agonist [3, 14]: No shift 10 μM |
| C=CCc1ccccc1OCCNCCCOC [VL12, 3-methoxy-N -[2-(2-prop-2-enylphenoxy)ethyl]propan-1-amine] |  | No receptor interaction | No receptor interaction |  |  |  | 6760 |  |  |  | No response | None | 3720 | No response | No response | No shift 10 μM | Log KD Catecholamine conformation Cimaterol as Agonist ([1]; rightward shift of cimaterol response, CHO-β1-CRE-luciferase cells, Gaddum, or Stephenson for partial agonists (a)): No shift at 10 μM; Log KD (CGP12177 as Agonist) [4, 12]: No shift 10 μM; Log KD Secondary Conformation, CGP12177 as agonist [3, 13]: No shift 10 μM; Log KD Catecholamine conformation Cimaterol as Agonist [3, 14]: No shift 10 μM |
